# Molecular target: T1, TRAP1 enzyme (Homo sapiens, UniProt Q12931)
# T1 construct: 150 nM Trap1 enzyme was incubated with various concentrations of the test compound
# T1 sequence (Q12931 60-704): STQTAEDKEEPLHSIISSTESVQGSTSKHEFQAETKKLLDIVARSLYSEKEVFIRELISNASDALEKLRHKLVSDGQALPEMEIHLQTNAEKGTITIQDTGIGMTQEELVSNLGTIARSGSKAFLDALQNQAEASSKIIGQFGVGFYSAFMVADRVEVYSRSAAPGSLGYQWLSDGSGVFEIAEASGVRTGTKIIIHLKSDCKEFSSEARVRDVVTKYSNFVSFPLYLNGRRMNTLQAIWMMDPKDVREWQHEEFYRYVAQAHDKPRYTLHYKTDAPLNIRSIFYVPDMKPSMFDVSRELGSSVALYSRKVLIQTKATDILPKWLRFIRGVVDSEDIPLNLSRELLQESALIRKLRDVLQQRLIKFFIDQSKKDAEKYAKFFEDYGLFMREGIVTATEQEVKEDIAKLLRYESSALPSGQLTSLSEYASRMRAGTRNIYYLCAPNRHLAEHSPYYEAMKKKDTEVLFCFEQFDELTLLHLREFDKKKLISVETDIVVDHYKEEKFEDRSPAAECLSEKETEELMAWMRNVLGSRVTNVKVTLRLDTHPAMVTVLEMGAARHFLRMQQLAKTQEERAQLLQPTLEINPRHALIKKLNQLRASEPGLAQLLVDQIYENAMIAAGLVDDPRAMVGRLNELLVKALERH
# Experiment: ADP Glo assay of TRAP1 ATPase activity
# Assay type: biochemical
# Details: for activation at 50 µM: 1 h, compound concentration 50 μM, read-out: ADP-Glo Percent Activation at 50 μM; for EC50: concentration for half maximal activation, read-out: ADP GLO DRC: GeoMean EC50; for Emax: maximal percent activation, read-out: ADP GLO DRC: Mean Emax
# In short: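 Compound (0.79–100 μM) was preincubated 30 min at 37° C with 150 nM TRAP1 in 25 mM Pipes pH 7.5, 40 mM KCl, 0.05 mM MgCl2. Reaction started with 20 μM ATP, 60 min at 37° C. ADP measured by luminescence against a standard curve; activation fitted sigmoidally for EC50 and Emax.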
SMILES,activation at 50 µM [%],EC50 [µM],Emax [%]
COc1ncc(NC(=O)c2ncc(-c3ccccc3)o2)cc1S(=O)(=O)Nc1cc(-c2ccc(C)cc2)nn1C [compound 1568],,20 to 100,200 to 300
"COc1ncc(NC(=O)c2cccc3c2OC(C)(C)C3)cc1S(=O)(=O)Nc1c(C)cccc1C [compound 1379, N-(5-(N-(2,6-dimethylphenyl)sulfamoyl)-6-methoxypyridin-3-yl)-2,2-dimethyl-2,3-dihydrobenzofuran-7-carboxamide]",,20 to 100,200 to 300
COc1ncc(NC(=O)c2cc3[nH]c(=O)[nH]c(=O)n3c2)cc1S(=O)(=O)Nc1c(C)cccc1C [compound 2732],151 to 180,,
COc1ncc(NC(=O)c2coc(-c3ccccc3)n2)cc1S(=O)(=O)Nc1ccc(F)c(F)c1C [compound 2000],,10 to 20,200 to 300
COc1ncc(NC(=O)c2cccc3c2CC(=O)N3)cc1S(=O)(=O)Nc1c(C)cccc1C [compound 2635],181 to 352,,
COc1ncc(NC(=O)c2ccc(S(C)(=O)=O)cc2)cc1S(=O)(=O)Nc1c(C)cccc1C [compound 2580],120 to 150,,
"COc1ncc(NC(=O)c2coc(-c3ccccc3)n2)cc1S(=O)(=O)Nc1ncc(Cl)cc1F [compound 1977, N-(5-(N-(5-chloro-3-fluoropyridin-2-yl)sulfamoyl)-6-methoxypyridin-3-yl)-2-phenyloxazole-4-carboxamide]",,20 to 100,200 to 300
"Cc1c[n+]([O-])c(NC(=O)c2ncc(-c3ccccc3)o2)cc1S(=O)(=O)Nc1ccc(Cl)cc1 [compound 1420, 4-(N-(4-chlorophenyl)sulfamoyl)-5-methyl-2-(5-phenyloxazole-2-carboxamido) pyridine 1-oxide]",,10 to 20,119 to 159
COc1ncc(NC(=O)c2ccc(S(=O)(=O)N(C)C)cc2)cc1S(=O)(=O)Nc1c(C)cccc1C [compound 2593],151 to 180,,
COc1ncc(NC(=O)c2cnc(-c3ccccc3)o2)cc1S(=O)(=O)Nc1cccc(C(F)(F)F)n1 [compound 2397],,20 to 100,119 to 159
COc1ncc(NC(=O)c2ncc(-c3ccccc3)o2)cc1S(=O)(=O)Nc1ccc2cnoc2c1 [compound 1525],,20 to 100,200 to 300

# The remaining lines, values ahead:
activation at 50 µM [%],EC50 [µM],Emax [%],SMILES
181 to 352,,,COc1ncc(NC(=O)c2ccnc(N3CCOCC3)c2)cc1S(=O)(=O)Nc1c(C)cccc1C [compound 2744]
181 to 352,,,COc1ncc(NC(=O)c2nn(C)c(C)c2Cl)cc1S(=O)(=O)Nc1c(C)cccc1C [compound 2710]
,10 to 20,160 to 199,COc1ncc(NC(=O)c2scc(C)c2Cl)cc1S(=O)(=O)Nc1c(C)cccc1C [compound 1398]
181 to 352,,,COc1ncc(NC(=O)c2coc(C(C)C)n2)cc1S(=O)(=O)Nc1c(C)cccc1C [compound 2697]
120 to 150,,,COCCn1nccc1C(=O)Nc1cnc(OC)c(S(=O)(=O)Nc2c(C)cccc2C)c1 [compound 2679]
181 to 352,,,COc1ncc(NC(=O)c2cncc(N(C)C)n2)cc1S(=O)(=O)Nc1c(C)cccc1C [compound 2543]
181 to 352,,,COc1ncc(NC(=O)c2cccc(NC(C)=O)c2)cc1S(=O)(=O)Nc1c(C)cccc1C [compound 2696]
151 to 180,,,COc1ncc(NC(=O)c2cc3n(n2)CCC3)cc1S(=O)(=O)Nc1c(C)cccc1C [compound 2663]
181 to 352,,,COc1ncc(NC(=O)c2cccn3cnnc23)cc1S(=O)(=O)Nc1c(C)cccc1C [compound 2625]
,< 10,200 to 300,COc1ncc(NC(=O)c2c[nH]c(-c3ccccc3)n2)cc1S(=O)(=O)Nc1c(C)cccc1C [compound 2092]
181 to 352,,,COc1ncc(NC(=O)c2snnc2C2CC2)cc1S(=O)(=O)Nc1c(C)cccc1C [compound 2720]
151 to 180,,,COc1ccc(C(=O)Nc2cnc(OC)c(S(=O)(=O)Nc3c(C)cccc3C)c2)cn1 [compound 2556]
151 to 180,,,COc1ncc(NC(=O)c2nnsc2C)cc1S(=O)(=O)Nc1c(C)cccc1C [compound 2780]

# From patent publication US20230159509A1 (Amathus Therapeutics, Inc., priority 2020, published 2023)
